Reference: article PMC2424174, “Suppression of Tumor Growth and Angiogenesis by a Specific Antagonist of the Cell-Surface Expressed Nucleolin” (PLoS ONE, 2008)

Experiments:
athymic nude mice = assay: Toxicity observations in treated nude mice; conditions: HB-19, 3 times per week; data not shown
[1] = test system: Aortic endothelial (ABAE) cells; assay: Tubular network structure formation in collagen gel; format: cell-based, bovine
Procedure: Figure 6 Inhibition of in vitro and in vivo angiogenesis by HB-19. (A) HB-19 inhibits proliferation of HUVECs. Twenty-four hours after seeding HUVECs in 2% FBS, cells were stimulated by 0.25 nM VEGF165, in the absence or presence of 1 µM HB-19 or 0.1 µM anti-nucleolin mAb MS-3 as indicated. After 72 h, cell number was determined by crystal violet staining. The data are reported as the mean of triplicate samples. (B) HB-19 inhibits migration of HUVECs. Cell migration was studied using a modified Boyden chamber. Cells were incubated (4 h at 37°C) with VEGF165, HB-19, or anti-nucleolin mAb MS-3 as above. Cells that migrated through the pore to the lower filter surface were counted and are shown as number per microscopic field at ×100 magnification. The data are the mean of three independent high-power fields/well performed in duplicate in two independent experiments. […] Aortic endothelial (ABAE) cells in the absence or presence of 3 nM PTN, 0.5 nM VEGF165, and 3 nM FGF-2 were seeded on a three-dimensional collagen gel in complete medium. Treatment with HB-19 or anti-nucleolin mAb MS-3 was for 3 days after cell plating. Tubular network structures were quantified using phase contrast microscopy (×100). The ordinate gives the number of pseudocapillaries corresponding to the means of three randomly chosen fields/well from three wells. (D) HB-19 inhibits […] angiogenic activity of growth factors in a Matrigel plug model. Liquid Matrigel was subcutaneously injected into the flank of Swiss mice in the absence or presence of 5 nM PTN, 10 nM FGF-2, and 1 µM HB-19. Quantification of endothelial cell invasion into the Matrigel was determined and is expressed as a mean of five fields per section from 3 Matrigel-plug sections per mouse. The results are expressed as the mean of five mice per group. Statistical significance: *p<0.05, **p<0.01, ***p<0.001.
Three-dimensional collagen gels were prepared following the procedure of Montesano with minor modifications. […] Tubular network structures were then quantified using phase contrast microscopy at 100× magnification. […]

[2] = cited from earlier work
Text: HB-19 treatment is not toxic in vitro and in vivo. The lack of translocation of HB-19 to the nucleus and nucleolus probably accounts for its lack of toxicity in cultured cells and in mice, since nuclear nucleolin is involved in many aspects of gene expression, [2]. […] In s ...

Substance: pseudo-tripeptide Lysψ(CH2N)-Pro-Arg coupled to a template (H2NLys-Lys-Lys-Gly-Pro-Lys-Glu-Lys-AhxCONH2) [HB-19, pseudopeptide presenting pentavalently the pseudo-tripeptide Lysψ(CH2N)-Pro-Arg coupled to a template]
- evidence of toxicity (athymic nude mice): nor induced any evidence of toxicity such as diarrhea, infection, weakness, or lethargy
- capillary-like structure formation, VEGF induced ([1]; 0.5 nM VEGF165, treatment 3 days): inhibited formation of capillary-like branched structures
- tubular network formation, FGF-2 induced ([1]; 3 nM FGF-2, treatment 3 days): inhibits tubular network structure formation in collagen
- capillary-like structure formation, PTN induced ([1]; 3 nM PTN, treatment 3 days): inhibited formation of capillary-like branched structures
- recovery in bone marrow ([2]; a few minutes following intravenous injection): a significant proportion of the peptide is recovered in the bone marrow
- tissue uptake [2]: there is a threshold for the tissue uptake of HB-19
- persistence in tissue ([2]; rats, 24 hours): a significant proportion still persists even after 24 hours in its active form
- blood clearance ([2]; rats, systemic administration): rapidly cleared from blood
- tissue distribution ([2]; rats, systemic administration): distributed selectively in tissues expressing enhanced levels of surface nucleolin
- form of excreted radioactivity in urine ([2]; rats): most of the excreted radioactivity in the urine is in the form of HB-19 metabolites
- route of elimination ([2]; rats): eliminated gradually by renal glomerular filtration
